Data from patent US4791215A, “Derivatives of glutamic acid and aspartic acid” (priority 1984, dated 1988).
“And” between values parts separate entries of the source, which are not always exact repeats. Identical values can stand only once.

What was measured:
[1] = system: CCK-8 induced contraction of guinea pig gall bladder; test: Anti-CCK-8 activity on gall bladders in situ; format: in vivo; conditions: for percentage inhibition of contracting effect of CCK-8: single experiments; for ED50: Cavia porcellus, iv, CCK-8 10 ng/kg i.v., read-out: ED50 (inhibition of 50% of contracting effect of CCK-8)
Description: In order to confirm the evidence of the studies in vitro several of the more interesting compounds were tested in vivo on guinea pig gall baldders in situ.
The method used is that described by Ljungberg (Svensk. Farm. Tidskr. 68, 351-354, 1964).
Guinea pigs having a weight of about 400 g, anaesthetised with urethane, were used; the substances under examination were administered intraveneously into the jugular vein.
The responses of the gall bladders to the substances under test were detected by means of a force transducer and recorded by means of a microdynamometer. The optimum contracting dose was chosen as 10 ng/kg of CCK-8. The antagonist compounds tested were administered in increasing doses so as to enable the calculation of an ED50 value, that is in the dose (in mg/kg i.v.) capable of inhibiting 50% of the contracting effect of 10 ng/kg i.v. of CCK-8.
The results obtained are given in Table 7 below, which gives the doses used and the effects obtained expressed as a percentage inhibition of the contracting effect of CCK-8 as well as the ED50 found.

morphine analgesia = test: Increase in analgesia of morphine, Tail Flick Test (Experiment 1); format: in vivo, rats; conditions: for percentage variation of latency of pain sensation / M (10-90) ± SE, mean percentage variation of latency: compound 10 mg/kg i.p. + morphine 2 mg/kg; for M (10-90) ± SE, mean percentage variation of latency: mean 10-90 min; for Power ratio with respect to morphine alone: rat, in vivo
Outline: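 Tail-flick latency to 75 °C radiant heat, capped at 8 s, measured in male non-fasted rats weighing 150-200 g. Percentage change per animal derived from pre-treatment baseline versus post-drug readings at 10-90 min (10, 20, 30, 45, 60, 90 min).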

[2] = system: intestinal transit of carbon; test: Anti-spastic activity, vegetable carbon intestinal transit test; format: in vivo, mice; conditions: Mus musculus, ip; read-out: antispastic activity ED50 (dose reducing intestinal transit of carbon by 50%)
Source text: The anti-spastic activity which the present compounds exert on the entire digestive system is also notable. Measured in mice with the vegetable carbon test (rate of transit through the stomach and the intestine), this activity is illustrated in the following table.
claimed administered intraperitoneally in mice. Values
expressed as the ED 50 in mg/kg, that is the dose which
reduces the intestinal transit of carbon by 50%

[3] = system: activity of analgesic drugs; test: Hot-plate test, potentiation of analgesic drugs (Experiment 2); format: in vivo, rats
Description: Experiment No. 2: Hot-plate test
The method is that described by Eddy et al. (J. Pharmac. Exp. Ther. 107, 385 (1953)).
Groups of five male rats having a weight of about 150 g, and which have not fasted, are used.
The animals are placed on a metal plate on the bottom of a transparent cylinder, which is heated to 55°±1° C. by an azeotropic boiling mixture (acetone-ethyl formate 1:1).
The reaction time is defined as the interval which passes between the moment at which the animal is placed on the hot-plate and the moment at which it either licks its feet or tries to jump out of the cylinder. The control reaction time is measured 10 and 5 minutes before administration of the drugs and 10, 20, 30, 45, 60 and 90 minutes afterwards. The animals are left on the plate for a maximum period of 30 seconds.
The response to the administration of the product is considered positive if at least a doubling of the normal reaction time is seen. The results obtained are given in Tables 2a and 2b which record the groups treated, the doses administered and the stay times on the plate expressed as the number of positive responses over the number treated.

With `CCCN(CCC)C(=O)C(CCC(=O)O)NC(=O)c1ccc(C(C)C)cc1` (stereo not shown) [Compound C-36] the “percentage inhibition of contracting effect of CCK-8” value (from here on “percentage inhibition”) ([1]; 10 mg/kg i.v.) was 64.8% and 71.6% and 63.3% and 78.7%, the “percentage inhibition” value ([1]; 30 mg/kg i.v.) was 100% and the ED50 [1] was 5.1 mg/kg. The “percentage variation of latency of pain sensation” value (morphine analgesia; 10') was 8.6%, the “percentage variation of latency of pain sensation” value (morphine analgesia; 20') was 100.0 ± 0% and the “percentage variation of latency of pain sensation” value (morphine analgesia; 30') was 96.9 ± 3%. For the same compound, the “percentage variation of latency of pain sensation” value (morphine analgesia; 45') was 90.0 ± 10%, the “percentage variation of latency of pain sensation” value (morphine analgesia; 60') was 96.9 ± 3% and the “percentage variation of latency of pain sensation” value (morphine analgesia; 90') was 92.4 ± 25%. For the same compound, the “M (10-90) ± SE, mean percentage variation of latency” value (morphine analgesia) was 80.8 ± 36%, the “Power ratio with respect to morphine alone” value (morphine analgesia) was 2.71 and the ED50 [2] was 208 mg/kg. For the same compound, the TOTAL positives ([3]; ASA 100 + compound 10 mg/kg i.p.) was 10 X/30, the “positive responses over number treated” value ([3]; ASA 100 + compound 10 mg/kg i.p., 10') was 1/5 and the “positive responses over number treated” value ([3]; ASA 100 + compound 10 mg/kg i.p., 20') was 2/5. For the same compound, the “positive responses over number treated” value ([3]; ASA 100 + compound 10 mg/kg i.p., 30') was 3/5, the “positive responses over number treated” value ([3]; ASA 100 + compound 10 mg/kg i.p., 45') was 2/5 and the “positive responses over number treated” value ([3]; ASA 100 + compound 10 mg/kg i.p., 60') was 1/5. For the same compound, the “positive responses over number treated” value ([3]; ASA 100 + compound 10 mg/kg i.p., 90') was 1/5, the TOTAL positives ([3]; ASA 100 + compound 30 mg/kg i.p.) was 14 X/30 and the “positive responses over number treated” value ([3]; ASA 100 + compound 30 mg/kg i.p., 10') was 1/5. For the same compound, the “positive responses over number treated” value ([3]; ASA 100 + compound 30 mg/kg i.p., 20') was 2/5, the “positive responses over number treated” value ([3]; ASA 100 + compound 30 mg/kg i.p., 30') was 2/5 and the “positive responses over number treated” value ([3]; ASA 100 + compound 30 mg/kg i.p., 45') was 3/5. For the same compound, the “positive responses over number treated” value ([3]; ASA 100 + compound 30 mg/kg i.p., 60') was 3/5, the “positive responses over number treated” value ([3]; ASA 100 + compound 30 mg/kg i.p., 90') was 3/5 and the TOTAL positives ([3]; ASA 100 + compound 100 mg/kg i.p.) was 20 X/30. For the same compound, the “positive responses over number treated” value ([3]; ASA 100 + compound 100 mg/kg i.p., 10') was 3/5, the “positive responses over number treated” value ([3]; ASA 100 + compound 100 mg/kg i.p., 20') was 3/5 and the “positive responses over number treated” value ([3]; ASA 100 + compound 100 mg/kg i.p., 30') was 4/5. For the same compound, the “positive responses over number treated” value ([3]; ASA 100 + compound 100 mg/kg i.p., 45') was 4/5, the “positive responses over number treated” value ([3]; ASA 100 + compound 100 mg/kg i.p., 60') was 4/5 and the “positive responses over number treated” value ([3]; ASA 100 + compound 100 mg/kg i.p., 90') was 2/5. The TOTAL positives ([3]; methadone 1 + compound 0.3 mg/kg i.p.) was 2 X/30, the “positive responses over number treated” value ([3]; methadone 1 + compound 0.3 mg/kg i.p., 10') was 2/5 and the “positive responses over number treated” value ([3]; methadone 1 + compound 0.3 mg/kg i.p., 20') was 2/5. For the same compound, the “positive responses over number treated” value ([3]; methadone 1 + compound 0.3 mg/kg i.p., 30') was 3/5, the “positive responses over number treated” value ([3]; methadone 1 + compound 0.3 mg/kg i.p., 45') was 3/5 and the “positive responses over number treated” value ([3]; methadone 1 + compound 0.3 mg/kg i.p., 60') was 1/5. For the same compound, the “positive responses over number treated” value ([3]; methadone 1 + compound 0.3 mg/kg i.p., 90') was 1/5, the TOTAL positives ([3]; methadone 1 + compound 1 mg/kg i.p.) was 19 X/30 and the “positive responses over number treated” value ([3]; methadone 1 + compound 1 mg/kg i.p., 10') was 3/5. The “positive responses over number treated” value ([3]; methadone 1 + compound 1 mg/kg i.p., 20') was 5/5, the “positive responses over number treated” value ([3]; methadone 1 + compound 1 mg/kg i.p., 30') was 4/5 and the “positive responses over number treated” value ([3]; methadone 1 + compound 1 mg/kg i.p., 45') was 3/5. For the same compound, the “positive responses over number treated” value ([3]; methadone 1 + compound 1 mg/kg i.p., 60') was 3/5, the “positive responses over number treated” value ([3]; methadone 1 + compound 1 mg/kg i.p., 90') was 1/5 and the TOTAL positives ([3]; methadone 1 + compound 3 mg/kg i.p.) was 24 X/30. The “positive responses over number treated” value ([3]; methadone 1 + compound 3 mg/kg i.p., 10') was 5/5, the “positive responses over number treated” value ([3]; methadone 1 + compound 3 mg/kg i.p., 20') was 5/5 and the “positive responses over number treated” value ([3]; methadone 1 + compound 3 mg/kg i.p., 30') was 3/5. For the same compound, the “positive responses over number treated” value ([3]; methadone 1 + compound 3 mg/kg i.p., 45') was 4/5, the “positive responses over number treated” value ([3]; methadone 1 + compound 3 mg/kg i.p., 60') was 5/5 and the “positive responses over number treated” value ([3]; methadone 1 + compound 3 mg/kg i.p., 90') was 2/5.

With `CCCCCN(CCCCC)C(=O)C(CCC(=O)O)NC(=O)c1ccc(Cl)c(Cl)c1` (stereo not shown) [Compound C-7] the “percentage inhibition” value ([1]; 0.003 mg/kg i.v.) was -10.6%, the “percentage inhibition” value ([1]; 0.03 mg/kg i.v.) was -62.1% and -57.0% and -59.2% and the “block of gall bladder contractions induced by CCK-8” value ([1]; 0.1 mg/kg) was “can block gall bladder contractions induced by CCK-8”. For the same compound, the ED50 [1] was 0.02 mg/kg, the “percentage variation of latency of pain sensation” value (morphine analgesia; 10') was 67.9 ± 14.3% and the “percentage variation of latency of pain sensation” value (morphine analgesia; 20') was 71.5 ± 17.6%. For the same compound, the “percentage variation of latency of pain sensation” value (morphine analgesia; 30') was 79.4%, the “percentage variation of latency of pain sensation” value (morphine analgesia; 45') was 84.6 ± 10.5% and the “percentage variation of latency of pain sensation” value (morphine analgesia; 60') was 92.9 ± 4.1%. For the same compound, the “percentage variation of latency of pain sensation” value (morphine analgesia; 90') was 72.6 ± 7.0%, the “M (10-90) ± SE, mean percentage variation of latency” value (morphine analgesia) was 78.2 ± 9.4% and the “Power ratio with respect to morphine alone” value (morphine analgesia) was 2.62. It also gave an ED50 [2] of 16.8 mg/kg.
